Assay results taken from ChEMBL document CHEMBL5608163, “Structure modification of anoplin for fighting resistant bacteria” (Eur J Med Chem, 2024).
Square brackets hold non-standard residues; d marks the D form. Peptide text beside a SMILES is read from it. 2Nal = N[C@@H](Cc1ccc2ccccc2c1)C(=O)O; Cha = N[C@@H](CC1CCCCC1)C(=O)O; Aoc(2) = CCCCCC[C@H](N)C(=O)O; hLeu = CC(C)CC[C@H](N)C(=O)O; Nle = CCCC[C@H](N)C(=O)O; Dab = NCC[C@H](N)C(=O)O; Nva = CCC[C@H](N)C(=O)O; Dap = NC[C@H](N)C(=O)O

What was measured:
[1] = test system: Erythrocyte; experiment: Hemolytic activity in human erythrocytes incubated for 1 hr by ELISA reader analysis; assay type: toxicity, cell-based
[2] = test system: Escherichia coli; experiment: Antimicrobial activity against Escherichia coli ATCC 25922 assessed as reduction in microbial growth measured after 24 hrs by CLSI based broth microdilution method; assay type: functional

Structure (SMILES)	HC10 [1] [µM]	MIC [2] [µM]
CC[C@H](C)[C@H](NC(=O)[C@H](CCCNC(=N)N)NC(=O)[C@H](CCCCN)NC(=O)[C@H](COC)NC(=O)[C@H](COC)NC(=O)CN)C(=O)N[C@@H](CCCCN)C(=O)N[C@H](C(=O)N[C@@H](COC)C(=O)N[C@@H](COC)C(N)=O)[C@@H](C)O (H-GS(Me)S(Me)KRIKTS(Me)S(Me)-NH2)	> 500	12.5
CC[C@H](C)[C@H](NC(=O)[C@H](CCCNC(=N)N)NC(=O)[C@H](CCN)NC(=O)[C@H](CC(C)C)NC(=O)[C@H](CC(C)C)NC(=O)CN)C(=O)N[C@@H](CCCCN)C(=O)N[C@@H](CCN)C(=O)N[C@@H](CC(C)C)C(=O)N[C@@H](CC(C)C)C(N)=O (H-GLL[Dab]RIK[Dab]LL-NH2)	> 500	> 200
CC[C@H](C)[C@H](NC(=O)[C@H](CCCNC(=N)N)NC(=O)[C@H](CCCCN)NC(=O)[C@H](CC(C)C)NC(=O)[C@H](CCSC)NC(=O)CN)C(=O)N[C@@H](CCCCN)C(=O)N[C@H](C(=O)N[C@@H](CC(C)C)C(=O)N[C@@H](CCSC)C(N)=O)[C@@H](C)O (H-GMLKRIKTLM-NH2)	500	> 200
CC[C@H](C)[C@H](NC(=O)[C@H](CCCNC(=N)N)NC(=O)[C@H](CCCCN)NC(=O)[C@H](CC(C)C)NC(=O)[C@H](COC)NC(=O)CN)C(=O)N[C@@H](CCCCN)C(=O)N[C@H](C(=O)N[C@@H](CC(C)C)C(=O)N[C@@H](CC(C)C)C(N)=O)[C@@H](C)O (H-GS(Me)LKRIKTLL-NH2)	> 500	> 200
CCCCCC[C@H](NC(=O)[C@H](CC(C)C)NC(=O)[C@@H](NC(=O)[C@H](CCCCN)NC(=O)[C@@H](NC(=O)[C@H](CCCNC(=N)N)NC(=O)[C@H](CCCCN)NC(=O)[C@H](CC(C)C)NC(=O)[C@H](CCCCCC)NC(=O)CN)[C@@H](C)CC)[C@@H](C)O)C(N)=O (H-G[Aoc(2)]LKRIKTL[Aoc(2)]-NH2)	71	6.25
CC[C@H](C)[C@H](NC(=O)[C@H](CCCNC(=N)N)NC(=O)[C@H](CCCCN)NC(=O)[C@H](CCSC)NC(=O)[C@H](CC(C)C)NC(=O)CN)C(=O)N[C@@H](CCCCN)C(=O)N[C@H](C(=O)N[C@@H](CCSC)C(=O)N[C@@H](CC(C)C)C(N)=O)[C@@H](C)O (H-GLMKRIKTML-NH2)	> 500	> 200
CC[C@H](C)[C@H](NC(=O)[C@H](CCCNC(=N)N)NC(=O)[C@H](CCCCN)NC(=O)[C@H](CCC(C)C)NC(=O)[C@H](CCC(C)C)NC(=O)CN)C(=O)N[C@@H](CCCCN)C(=O)N[C@H](C(=O)N[C@@H](CCC(C)C)C(=O)N[C@@H](CCC(C)C)C(N)=O)[C@@H](C)O (H-G[hLeu][hLeu]KRIKT[hLeu][hLeu]-NH2)	125	12.5
CC[C@H](C)[C@H](NC(=O)[C@H](CCCNC(=N)N)NC(=O)[C@H](CCCCN)NC(=O)[C@@H](NC(=O)[C@@H](NC(=O)CN)C(C)C)C(C)C)C(=O)N[C@@H](CCCCN)C(=O)N[C@H](C(=O)N[C@H](C(=O)N[C@H](C(N)=O)C(C)C)C(C)C)[C@@H](C)O (H-GVVKRIKTVV-NH2)	> 500	> 200
CCC[C@H](NC(=O)[C@H](CC(C)C)NC(=O)CN)C(=O)N[C@@H](CCCCN)C(=O)N[C@@H](CCCNC(=N)N)C(=O)N[C@@H](Cc1ccc2ccccc2c1)C(=O)N[C@@H](CCCCN)C(=O)N[C@H](C(=O)N[C@@H](CCC)C(=O)N[C@@H](CC(C)C)C(N)=O)[C@@H](C)O (H-GL[Nva]KR[2Nal]KT[Nva]L-NH2)	> 500	100
CCCCCC[C@H](NC(=O)[C@H](CCCCCC)NC(=O)[C@@H](NC(=O)[C@H](CCCCN)NC(=O)[C@@H](NC(=O)[C@H](CCCNC(=N)N)NC(=O)[C@H](CCCCN)NC(=O)[C@H](CCCCCC)NC(=O)[C@H](CCCCCC)NC(=O)CN)[C@@H](C)CC)[C@@H](C)O)C(N)=O (H-G[Aoc(2)][Aoc(2)]KRIKT[Aoc(2)][Aoc(2)]-NH2)	20	
CCCC[C@H](NC(=O)[C@H](CC(C)C)NC(=O)[C@@H](NC(=O)[C@H](CCCCN)NC(=O)[C@@H](NC(=O)[C@H](CCCNC(=N)N)NC(=O)[C@H](CCCCN)NC(=O)[C@H](CC(C)C)NC(=O)[C@H](CCCC)NC(=O)CN)[C@@H](C)CC)[C@@H](C)O)C(N)=O (H-G[Nle]LKRIKTL[Nle]-NH2)	> 500	100
CC[C@H](C)[C@H](NC(=O)[C@H](CCCNC(=N)N)NC(=O)[C@H](CCCCN)NC(=O)[C@H](Cc1ccc2ccccc2c1)NC(=O)CN)C(=O)N[C@@H](CCCCN)C(=O)N[C@H](C(=O)N[C@@H](CC(C)C)C(=O)N[C@@H](CC(C)C)C(N)=O)[C@@H](C)O (H-G[2Nal]KRIKTLL-NH2)	300	6.25
CCCC[C@H](NC(=O)[C@H](CCCC)NC(=O)[C@@H](NC(=O)[C@H](CCCCN)NC(=O)[C@@H](NC(=O)[C@H](CCCNC(=N)N)NC(=O)[C@H](CCCCN)NC(=O)[C@H](CCCC)NC(=O)[C@H](CCCC)NC(=O)CN)[C@@H](C)CC)[C@@H](C)O)C(N)=O (H-G[Nle][Nle]KRIKT[Nle][Nle]-NH2)	> 500	100
CC[C@H](C)[C@H](NC(=O)[C@H](CCCNC(=N)N)NC(=O)[C@H](CCCCN)NC(=O)[C@H](CC(C)C)NC(=O)[C@H](C)NC(=O)CN)C(=O)N[C@@H](CCCCN)C(=O)N[C@H](C(=O)N[C@@H](CC(C)C)C(=O)N[C@@H](C)C(N)=O)[C@@H](C)O (H-GALKRIKTLA-NH2)	> 500	50
CC[C@H](C)[C@H](NC(=O)[C@H](CCCNC(=N)N)NC(=O)[C@H](CCCCN)NC(=O)[C@H](CC(C)C)NC(=O)[C@H](CC1CCCCC1)NC(=O)CN)C(=O)N[C@@H](CCCCN)C(=O)N[C@H](C(=O)N[C@@H](CC1CCCCC1)C(=O)N[C@@H](CC(C)C)C(N)=O)[C@@H](C)O (H-G[Cha]LKRIKT[Cha]L-NH2)	120	12.5
CC[C@H](C)[C@H](NC(=O)[C@H](CCCNC(=N)N)NC(=O)[C@H](CCCCN)NC(=O)[C@H](CCSC)NC(=O)[C@H](CCSC)NC(=O)CN)C(=O)N[C@@H](CCCCN)C(=O)N[C@H](C(=O)N[C@@H](CCSC)C(=O)N[C@@H](CCSC)C(N)=O)[C@@H](C)O (H-GMMKRIKTMM-NH2)	> 500	> 200
CC[C@H](C)[C@H](NC(=O)[C@H](CCCNC(=N)N)NC(=O)[C@H](CCCCN)NC(=O)[C@H](CC(C)C)NC(=O)[C@H](CC(C)C)NC(=O)CN)C(=O)N[C@@H](CCCCN)C(=O)N[C@@H](CO)C(=O)N[C@@H](CC(C)C)C(=O)N[C@@H](CC(C)C)C(N)=O (H-GLLKRIKSLL-NH2)	> 500	100
CCC[C@H](NC(=O)[C@H](CC(C)C)NC(=O)[C@@H](NC(=O)[C@H](CCCCN)NC(=O)[C@H](Cc1ccc2ccccc2c1)NC(=O)[C@H](CCCNC(=N)N)NC(=O)[C@H](CCCCN)NC(=O)[C@H](CC(C)C)NC(=O)[C@H](CCC)NC(=O)CN)[C@@H](C)O)C(N)=O (H-G[Nva]LKR[2Nal]KTL[Nva]-NH2)	> 500	100
CC[C@H](C)[C@H](NC(=O)[C@H](CCCNC(=N)N)NC(=O)[C@H](CO)NC(=O)[C@H](CC(C)C)NC(=O)[C@H](CC(C)C)NC(=O)CN)C(=O)N[C@@H](CCCCN)C(=O)N[C@H](C(=O)N[C@@H](CC(C)C)C(=O)N[C@@H](CC(C)C)C(N)=O)[C@@H](C)O (H-GLLSRIKTLL-NH2)	> 500	100
CC[C@H](C)[C@H](NC(=O)[C@H](CCCNC(=N)N)NC(=O)[C@H](CN)NC(=O)[C@H](CC(C)C)NC(=O)[C@H](CC(C)C)NC(=O)CN)C(=O)N[C@@H](CCCCN)C(=O)N[C@H](C(=O)N[C@@H](CC(C)C)C(=O)N[C@@H](CC(C)C)C(N)=O)[C@@H](C)O (H-GLL[Dap]RIKTLL-NH2)	> 500	100
CC[C@H](C)[C@H](NC(=O)[C@H](CCCNC(=N)N)NC(=O)[C@H](CCN)NC(=O)[C@H](CC(C)C)NC(=O)[C@H](CC(C)C)NC(=O)CN)C(=O)N[C@@H](CCCCN)C(=O)N[C@H](C(=O)N[C@@H](CC(C)C)C(=O)N[C@@H](CC(C)C)C(N)=O)[C@@H](C)O (H-GLL[Dab]RIKTLL-NH2)	> 500	75
CCC[C@H](NC(=O)[C@H](CCC)NC(=O)[C@@H](NC(=O)[C@H](CCCCN)NC(=O)[C@H](Cc1ccc2ccccc2c1)NC(=O)[C@H](CCCNC(=N)N)NC(=O)[C@H](CCCCN)NC(=O)[C@H](CCC)NC(=O)[C@H](CCC)NC(=O)CN)[C@@H](C)O)C(N)=O (H-G[Nva][Nva]KR[2Nal]KT[Nva][Nva]-NH2)	> 500	> 200
CC[C@H](C)[C@H](NC(=O)[C@H](CCCNC(=N)N)NC(=O)[C@H](CCCCN)NC(=O)[C@H](CC(C)C)NC(=O)[C@H](CCC(C)C)NC(=O)CN)C(=O)N[C@@H](CCCCN)C(=O)N[C@H](C(=O)N[C@@H](CC(C)C)C(=O)N[C@@H](CCC(C)C)C(N)=O)[C@@H](C)O (H-G[hLeu]LKRIKTL[hLeu]-NH2)	380	12.5
CC[C@H](C)[C@H](NC(=O)[C@H](CCCNC(=N)N)NC(=O)[C@@H](NC(=O)[C@H](CC(C)C)NC(=O)[C@H](CC(C)C)NC(=O)CN)[C@@H](C)O)C(=O)N[C@@H](CCCCN)C(=O)N[C@H](C(=O)N[C@@H](CC(C)C)C(=O)N[C@@H](CC(C)C)C(N)=O)[C@@H](C)O (H-GLLTRIKTLL-NH2)	> 500	200
CCC[C@H](NC(=O)[C@H](CCC)NC(=O)[C@@H](NC(=O)[C@H](CCCCN)NC(=O)[C@@H](NC(=O)[C@H](CCCNC(=N)N)NC(=O)[C@H](CCCCN)NC(=O)[C@H](CCC)NC(=O)[C@H](CCC)NC(=O)CN)[C@@H](C)CC)[C@@H](C)O)C(N)=O (H-G[Nva][Nva]KRIKT[Nva][Nva]-NH2)	> 500	> 200
